Where a name gives a salt, the structure may show the parent alone.
What was measured:
Format in all cases: cell-based, human
SMN2 mRNA = experiment: Splicing RT-qPCR panel, SMN2 canonical junction (CJ) mRNA; settings: Homo sapiens, read-out: SMN2 CJ (decrease in CJ mRNA levels, IC50)
In short: (§1)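 A673 cells (DMEM, 10% FBS) or K562 cells (IMDM, 10% FBS) treated 24 h at 37 °C with an 11-point 3-fold dilution, top 10 uM, DMSO ≤0.25%. Canonical-junction mRNA quantified in lysates by RT-qPCR, normalised to GAPDH, GUSB or PPIA and to DMSO (2^−ΔΔCt), then converted to % response.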

Target C mRNA = experiment: Splicing RT-qPCR panel, Target C canonical junction (CJ) mRNA; settings: Homo sapiens, read-out: Target C CJ (decrease in CJ mRNA levels, IC50)
In short: as §1

HiBiT-tagged HTT protein = experiment: HiBiT protein abundance assay, HTT (K562 HiBiT knock-in); settings: HiBiT knock-in cells, 24 hours
In short: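 Endogenously HiBiT-tagged K562 knock-in lines treated 24 h at 37 °C with 10-point 3-fold dilutions (top 10 μM final, DMSO ≤0.25%) in IMDM+1% FBS. Lytic Nano-Glo luminescence normalized to DMSO and unmodified K562 controls; four-parameter fit gives 50%-abundance concentration (IC50).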

Row | SMILES | IC50 (SMN2 mRNA) | IC50 (Target C mRNA) | IC50 (HiBiT-tagged HTT protein)
1 | CN[C@H]1CN(c2cnc3nc(-c4cc5cn(C)nc5c(C)c4O)ccc3c2)C[C@H]1C [Compound 125, 2,7-dimethyl-5-{6-[(3R,4R)-3-methyl-4-(methylamino)379pyrrolidine-1-yl]-1,8-naphthyridin-2-yl}indazol-6-ol] | < 100 nM | 100 to 1000 nM | < 100 nM
2 | Cc1cn2nc(-c3cnc4nc(C5CCNCC5)ccc4c3)cc(C)c2n1 [Compound 115, 6-(2,8-dimethylimidazo[1,2-b]pyridazin-6-yl)-2-(piperidin-4-yl)-1,8-naphthyridine] | 100 to 1000 nM | > 10000 nM | 1000 to 10000 nM
3 | CCNC1CCN(c2cnc3nc(-c4cc5cn(C)nc5c(C)c4O)ccc3c2)C1 (stereo not drawn) [Compound 122, 5-{6-[3-(ethylamino)pyrrolidin-1-yl]-1,8-naphthyridin-2-yl}-2,7-dimethylindazol-6-ol] | < 100 nM | 100 to 1000 nM | < 100 nM
4 | Cn1cc2cc(-c3ccc4cc(N5CC[C@H](NCC6CC6)C5)cnc4n3)c(O)c(F)c2n1 [Compound 136, 5-{6-[(3S)-3-[(cyclopropylmethyl)amino]326pyrrolidine-1-yl]-1,8-naphthyridin-2-yl}-7-fluoro-2-methylindazol-6-ol] | < 100 nM | 1000 to 10000 nM | 100 to 1000 nM
5 | CNC(=O)c1cc(-c2cc3cn(C)nc3c(C)c2O)nc2ncc(N3CCNCC3)cc12 [Compound 150, 2-(6-hydroxy-2,7-dimethylindazol-5-yl)-N-methyl-6-(piperazin-1-yl)-1,8-naphthyridine-4-carboxamide] | 1000 to 10000 nM | > 10000 nM | > 10000 nM
6 | CN[C@H]1CCN(c2cnc3nc(-c4cc5cn(C)nc5c(F)c4O)cc(Cl)c3c2)C1 [Compound 272] | < 100 nM | 100 to 1000 nM | < 100 nM
7 | Cc1c(O)c(-c2cc(C3CC3)c3cc(N4CCNCC4)cnc3n2)cc2cn(C)nc12 [Compound 144, 5-(4-cyclopropyl-6-(piperazin-1-yl)-1,8-naphthyridin-2-yl)-2,7-dimethyl-2H-indazol-6-ol bis(2,2,2-trifluoroacetate)] | < 100 nM | 1000 to 10000 nM | 100 to 1000 nM
8 | C[C@H]1CN(c2cnc3nc(-c4cc(F)c5nn(C)cc5c4)cc(Cl)c3c2)CCN1 [Compound 296] | < 100 nM | 1000 to 10000 nM | 100 to 1000 nM
9 | CN(c1cnc2nc(-c3cc4cn(C)nc4c(F)c3O)cc(Cl)c2c1)[C@@H]1CCNC1 [Compound 276] | < 100 nM | 1000 to 10000 nM | 100 to 1000 nM
10 | CN[C@H]1CCN(c2cnc3nc(-c4cc5cn(C)nc5c(C)c4O)cc(Cl)c3c2)C1.Cl [Compound 287] | < 100 nM | 100 to 1000 nM | < 100 nM
11 | Cc1c(O)c(-c2ccc3cc(N4CCNCC4)cnc3n2)cc2cn(C)nc12 [Compound 137, 2,7-dimethyl-5-[6-(piperazin-1-yl)-1,8-naphthyridin-2-yl]indazol-6-ol] | < 100 nM | 100 to 1000 nM | 100 to 1000 nM
12 | Cc1c(O)c(-c2cc(Cl)c3cc(NC4CCNC4)cnc3n2)cc2cn(C)nc12 (stereo not drawn) [Compound 146, 5-[4-chloro-6-(359pyrrolidine-3-ylamino)-1,8-naphthyridin-2-yl]-2,7-dimethylindazol-6-ol] | < 100 nM | 1000 to 10000 nM | 100 to 1000 nM
13 | Cc1c(O)c(-c2ccc3cc(N4CCC(NCC5CC5)C4)cnc3n2)cc2cn(C)nc12 (stereo not drawn) [Compound 105, 5-(6-{3-[(cyclopropylmethyl)amino]pyrrolidin-1-yl}-1,8-naphthyridin-2-yl)-2,7-dimethylindazol-6-ol] | < 100 nM | 1000 to 10000 nM | < 100 nM
14 | CN(c1cnc2nc(-c3cc4cn(C)nc4c(F)c3O)ccc2c1)C1CCNCC1 [Compound 284] | < 100 nM | > 10000 nM | 1000 to 10000 nM
15 | Cc1cn2cc(-c3cc(Cl)c4cc(N5C[C@@H](C)N[C@@H](C)C5)cnc4n3)cc(F)c2n1 [Compound 297] | < 100 nM | > 10000 nM | 100 to 1000 nM
16 | Cn1cc2cc(-c3ccc4cc(NC5CCNCC5)cnc4n3)c(O)c(F)c2n1 [Compound 285] | < 100 nM | 1000 to 10000 nM | 100 to 1000 nM
17 | Cc1c(O)c(-c2ccc3cc(N4CCC(N(C)C)CC4)cnc3n2)cc2cn(C)nc12 [Compound 138, 5-{6-[4-(dimethylamino)piperidin-1-yl]-1,8-naphthyridin-2-yl}-2,7-dimethylindazol-6-ol] | < 100 nM | 1000 to 10000 nM | 100 to 1000 nM
18 | CCN[C@H]1CCN(c2cnc3nc(-c4cc5cn(C)nc5c(C)c4O)ccc3c2)C1 [Compound 123] | < 100 nM | 100 to 1000 nM | < 100 nM
19 | Cn1cc2cc(-c3ccc4cc(N5CC[C@@H](NCC6CC6)C5)cnc4n3)c(O)c(F)c2n1 [Compound 135, 5-{6-[(3R)-3-[(cyclopropylmethyl)amino]330pyrrolidine-1-yl]-1,8-naphthyridin-2-yl}-7-fluoro-2-methylindazol-6-ol] | < 100 nM | 100 to 1000 nM | < 100 nM
20 | CCNC1CCN(c2cnc3nc(-c4cc5cn(C)nc5c(F)c4O)ccc3c2)C1 (stereo not drawn) [Compound 106, 5-{6-[3-(ethylamino)pyrrolidin-1-yl]-1,8-naphthyridin-2-yl}-7-fluoro-2-methylindazol-6-ol] | < 100 nM | 100 to 1000 nM | < 100 nM
21 | CN[C@@H]1CCN(c2cnc3nc(-c4cc5cn(C)nc5c(C)c4O)ncc3c2)C1 [Compound 107, 2,7-dimethyl-5-{6-[(3R)-3-(methylamino)pyrrolidin-1-yl]pyrido[2,3-d]pyrimidin-2-yl}indazol-6-ol hydrochloride] | < 100 nM | 100 to 1000 nM | < 100 nM

Results, then the molecule that gave them:

Row | IC50 (SMN2 mRNA) | IC50 (Target C mRNA) | IC50 (HiBiT-tagged HTT protein) | SMILES
22 | < 100 nM | > 10000 nM | 100 to 1000 nM | CN1CCC[C@@H]2CN(c3cnc4nc(-c5cc6cn(C)nc6c(F)c5O)cc(Cl)c4c3)C[C@@H]21 [Compound 303]
23 | < 100 nM | 100 to 1000 nM | 100 to 1000 nM | CCN[C@@H]1CCN(c2cnc3nc(-c4cc5cn(C)nc5cc4O)ccc3c2)C1 [Compound 310, 5-{6-[(3R)-3-(ethylamino)468pyrrolidine-1-yl]-1,8-naphthyridin-2-yl}-2-methylindazol-6-ol hydrochloride]
24 | 100 to 1000 nM | > 10000 nM | 1000 to 10000 nM | Cc1c(O)c(-c2ccc3c(C(F)(F)F)c(N4CCNCC4)cnc3n2)cc2cn(C)nc12 [Compound 302, 2,7-dimethyl-5-[6-(piperazin-1-yl)-5-(trifluoromethyl)-1,8-naphthyridin-2-yl]indazol-6-ol]
25 | < 100 nM | 1000 to 10000 nM | < 100 nM | CN[C@H]1CCN(c2cnc3nc(-c4cc(C)c5nc(C)cn5n4)cc(Cl)c3c2)C1 [Compound 340]
26 | < 100 nM | > 10000 nM | 1000 to 10000 nM | CN1CCC[C@H]2CN(c3cnc4nc(-c5cc6cn(C)nc6c(F)c5O)cc(Cl)c4c3)C[C@H]21 [Compound 304]
27 | < 100 nM | < 100 nM | < 100 nM | CCN[C@@H]1CCN(c2cnc3nc(-c4cc5cn(C)nc5cc4O)cc(Cl)c3c2)C1 [Compound 317]
28 | < 100 nM | 100 to 1000 nM | < 100 nM | CN[C@@H]1CCN(c2cnc3nc(-c4cc(C)c5nc(C)cn5n4)cc(Cl)c3c2)C1 [Compound 341]
29 | < 100 nM | > 10000 nM | 1000 to 10000 nM | C[C@@H]1CN(c2cnc3nc(-c4cc(C#N)c5nn(C)cc5c4)cc(Cl)c3c2)C[C@H](C)N1 [Compound 325, 5-(4-chloro-6-((3R,5S)-3,5-dimethylpiperazin-1-yl)-1,8-naphthyridin-2-yl)-2-methyl-2H-indazole-7-carbonitrile 2,2,2-trifluoroacetate]
30 | < 100 nM | 1000 to 10000 nM | 1000 to 10000 nM | CN(C)C1CCN(c2cnc3nc(-c4cc5cn(C)nc5cc4O)ccc3c2)CC1 [Compound 316]
31 | < 100 nM | 1000 to 10000 nM | 100 to 1000 nM | CCN[C@H]1CCN(c2cnc3nc(-c4cc5cn(C)nc5cc4O)cc(Cl)c3c2)C1 [Compound 318]
